The record followed here is patent US11208629B2, “Non-human primate induced pluripotent stem cell derived hepatocytes and uses thereof” (Hoffmann-La Roche Inc., priority 2016, dated 2021).

The test system of one data set is Cynomolgus IPSCs. Description: Hepatocyte differentiation of cynomolgus IPSCs (supplement optimisation).
In data set [1] the test system is NHP-IPSC-derived hepatocytes. Description: Hepatotoxicity assay (WST-1 cell viability). Conditions: 100 μM, 24 hours, WST-1, MACS-enriched cells in matrigel sandwich. Type of data set: cell-based, Cynomolgus monkey. As for the experimental part:
NHP-IPSC-derived hepatocytes were enriched using MACS and replated in matrigel sandwich condition as described above. To assess cell response to hepatotoxic compounds cells were treated with 100 μM troglitazone (Sigma) for 24 hours. Cell viability was measured using the WST-1 reagent (Sigma). 10 μl WST-1 reagent were added directly to the medium (1:10 dilution) and cells were incubated for 4 hours at 37° C., 5% CO2. Plates were stirred for 15 seconds and absorbance at 405 nm was measured.
To assess the feasibility of NHP IPSC-derived hepatocytes as model system for drug-induced liver injury, we treated the hepatocytes with Troglitazone, a small molecule with known hepatotoxic effects.

Procedure for Cynomolgus IPSCs: To initialize differentiation, the cells are incubated in a defined medium comprising a Wnt pathway activator.
Generally, media change was performed every day until day 16 and afterwards every second day. Basic medium for differentiation was MT basic medium (DMEM/F12+Glutamax with insulin 7 μg/ml, monothioglycerole 450 μM, 1× Lipid concentrate, BSA 5 mg/ml, sodium selenite 14 ng/ml, 1× non-essential amino acids, heparin 2 mg/ml, transferrin 15 μg/ml, 220 μM ascorbic acid-2-phosphate) or changing to RPMI1640 medium+B27 1:50+non-essential amino acids 1:100 from day 3 of differentiation onwards. On day 1 of differentiation, medium was changed to MT basic medium with 100 ng/ml ActivinA, 10 μM Ly294002 and 1 μM CP21 (Roche GSK3β inhibitor). Then, cells were treated for two days with 100 ng/ml ActivinA, 0.25 μM LDN193189 and 1 μM CP21. At day 4, the medium was changed for three days to the supplements 50 ng/ml ActivinA, 2% knock-out serum replacement (KSR) and 0.5% DMSO. The protocol was modified to a prolonged step of high ActivinA which consisted of 100 ng/ml ActivinA at day 4 of differentiation. To induce hepatic specification, cells were maintained for four days in medium supplemented with 2% KSR, 10 ng/ml BMP4, 10 ng/ml FGF2 or FGF10 and 0.5% DMSO. […] Modification included the addition of 1 μM DAPT between day 11 and day 20. Further modifications included the change of the basis medium for maturation at day 11 to HBM medium+SingleQuots™ (Lonza).
At day 21 of differentiation, efficiency of differentiation was analyzed using two different quantification methods. First, the area covered by ALB positive cells was determined and second the area of cells with typical hepatocyte morphology was evaluated (FIG. 6A and FIG. 6B).

On to `Cn1cc(C2=C(c3cccc(N)c3)C(=O)NC2=O)c2ccccc21` [CP21, 3-(3-Amino-phenyl)-4-(1-methyl-1H-indol-3-yl)-pyrrole-2,5-dione], for which, in the data set with Cynomolgus IPSCs (CP21 1 μM, cell density 45000/cm^2, tested 0 to 2 μM, 30000 to 75000/cm^2), the “efficiency of differentiation of pluripotent stem cells into hepatocytes” value was “most efficient differentiation”. In the data set on Cynomolgus IPSCs (CP21 concentrations above 2 μM), the “cell viability during differentiation” value is “decreased cell viability”.
As for `Cc1c(C)c2c(c(C)c1O)CCC(C)(COc1ccc(CC3SC(=O)NC3=O)cc1)O2` (stereo not shown) [Troglitazone], the “cell viability compared to control cells” value in data set [1] is reported as “decrease in cell viability”.
Consider “FGF2: fibroblast growth factor used for hepatic specification”, for which, in the data set with Cynomolgus IPSCs (10 ng/ml FGF2 versus FGF10, hepatic specification step), the “ALB positive cells at day 21” value is on record as “more ALB positive cells than FGF10 treatment”.
